Measurements taken from patent US6271238A, “Acetamide derivatives and protease inhibitors” (Nippon Kayaku Kabushiki Kaisha, priority 1996, dated 2001).
Counter-ions that a name gives are not always drawn. Like-named read-outs stand apart in the source and are kept apart here.

Experiments:
Type in all cases: biochemical
rat chymase = target: T1, rat chymase (Rattus norvegicus, UniProt P09650); experiment: Inhibitory activity on rat chymase (synthetic substrate)
T1 construct: 50 g rat tongue was finely divided by scissors and a scalpel; from tissue; host or cells: rat tongue
T1 sequence (P09650 21-260): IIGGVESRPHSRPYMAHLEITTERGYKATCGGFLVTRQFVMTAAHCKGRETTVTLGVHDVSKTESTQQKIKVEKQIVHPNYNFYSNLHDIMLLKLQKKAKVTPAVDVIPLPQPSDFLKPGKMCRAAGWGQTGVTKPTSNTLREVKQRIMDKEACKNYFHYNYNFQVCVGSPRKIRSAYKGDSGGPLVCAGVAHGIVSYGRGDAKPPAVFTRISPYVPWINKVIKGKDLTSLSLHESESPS
Experimental: In the present invention, chymase was purified by the methods described in these literatures, and the present compounds were examined for inhibitory activity on chymase, inhibitory action on activation of mast cells and eosinophils, and pharmacological action in animals. Hereinafter, specific methods are described. […] 50 g rat tongue was finely divided by scissors and a scalpel, suspended in 0.1 M phosphate buffer (pH 8.0), and disrupted by a Polytron homogenizer for 5 minutes to prepare a crude chymase enzyme solution. […] The supernatant was applied to an octyl Sepharose 4B column (40×100 mm) previously equilibrated with 0.1 M phosphate buffer (pH 8.0) containing 2 M sodium chloride and 5% ammonium sulfate, and the protein was eluted with a linear concentration gradient of from 2 M to 0 M sodium chloride. […] (D) Measurement of inhibitory activity on chymase (a) Measurement using the synthetic substrate The synthetic chymase substrate was used for measurement of the inhibitory activity on the rat chymase as a subtrate, and the fluorescence of formed aminomethylcoumarin after reaction was measured by a spectrophotometer. […] The test was conducted several times. Chymase was prepared for each test in the manner described above. The compounds examined were compounds prepared in the above-described examples. […] Succinyl leucyl leucyl valyl tyrosyl methylcoumarylamide (for rat […] angiotensin I (for human and dog chymase)

Human cathepsin G = target: T2, Human cathepsin G (Homo sapiens, UniProt P08311); experiment: Inhibitory activity on proteases other than chymase: human cathepsin G; details: succinyl alanyl alanyl propyl phenylmethylcoumarylamide substrate; read-out: 50% Inhibitory concentration toward Human cathepsin G
T2 sequence (P08311 21-255): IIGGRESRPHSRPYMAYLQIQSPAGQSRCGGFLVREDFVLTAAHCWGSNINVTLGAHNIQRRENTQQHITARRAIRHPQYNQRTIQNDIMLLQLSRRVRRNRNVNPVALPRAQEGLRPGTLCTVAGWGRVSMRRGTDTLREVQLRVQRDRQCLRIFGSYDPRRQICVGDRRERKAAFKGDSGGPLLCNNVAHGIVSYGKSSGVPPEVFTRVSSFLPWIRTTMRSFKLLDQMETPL
Experimental: (§1) (E) Measurement of inhibitory activity on proteases other than chymase
(§2) The inhibitory activity of the present compounds on human elastase, human cathepsin G, human urokinase, human thrombin, human plasmin, and human factor Xa was determined using their corresponding synthetic substrates in the same manner as for chymase. All the above proteases were those commercially available from Boehringer Mannheim or purified by a combination of known methods. The synthetic substrates were those produced by Peptide Renkyusho. The synthetic substrates for the respective proteases are as follows.
Human cathepsin G Succinyl alanyl alanyl propyl phenylmethyl-
(§3) The test was conducted several times. Chymase was prepared for each test in the manner described above. The compounds examined were compounds prepared in the above-described examples.

Human elastase = target: T3, Human elastase (Homo sapiens, UniProt P08246); experiment: Inhibitory activity on proteases other than chymase: human elastase; details: succinyl alanyl propyl alanyl methylcoumarylamide substrate; read-out: 50% Inhibitory concentration toward Human elastase
T3 sequence (P08246 30-247 limits assumed): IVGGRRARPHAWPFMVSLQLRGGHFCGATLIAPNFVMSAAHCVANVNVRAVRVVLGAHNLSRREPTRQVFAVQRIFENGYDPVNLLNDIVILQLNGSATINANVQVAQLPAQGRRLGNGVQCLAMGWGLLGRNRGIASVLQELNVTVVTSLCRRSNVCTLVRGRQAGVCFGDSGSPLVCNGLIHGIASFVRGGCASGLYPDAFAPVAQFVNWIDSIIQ
Experimental: as §1, §2
Human elastase Succinyl alanyl propyl alanyl methylcoumarylamide
as §3

Human urokinase = Human urokinase (Homo sapiens, UniProt P00749); experiment: Inhibitory activity on proteases other than chymase: human urokinase; details: pyridyl glycyl arginyl methylcoumarylamide substrate; read-out: 50% Inhibitory concentration toward Human urokinase
Experimental: as §2, with “(E) Measurement of inhibitory activity on proteases other than chymase The inhibitory” for “The inhibitory”, “as follows. |Human urokinase Pyridyl glycyl arginyl methylcoumarylamide The test was conducted several times. Chymase was prepared for each test in the manner described above. The compounds examined were compounds prepared in the above-described examples.” for “as follows.”

Human plasmin = target: T4, Human plasmin (Homo sapiens, UniProt P00747); experiment: Inhibitory activity on proteases other than chymase: human plasmin; details: benzyloxycarbonyl valyl leucyl lyzyl methylcoumarylamide substrate; read-out: 50% Inhibitory concentration toward Human plasmin
T4 construct: human plasmin
T4 sequence (P00747 581-810 limits assumed): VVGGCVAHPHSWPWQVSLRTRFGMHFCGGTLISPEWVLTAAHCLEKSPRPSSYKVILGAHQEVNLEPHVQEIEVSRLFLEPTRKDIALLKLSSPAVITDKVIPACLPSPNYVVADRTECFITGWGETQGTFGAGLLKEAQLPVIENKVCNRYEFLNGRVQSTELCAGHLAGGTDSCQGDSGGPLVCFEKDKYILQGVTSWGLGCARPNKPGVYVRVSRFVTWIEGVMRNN
T4 sequence (P00747 97-580 partner limits assumed): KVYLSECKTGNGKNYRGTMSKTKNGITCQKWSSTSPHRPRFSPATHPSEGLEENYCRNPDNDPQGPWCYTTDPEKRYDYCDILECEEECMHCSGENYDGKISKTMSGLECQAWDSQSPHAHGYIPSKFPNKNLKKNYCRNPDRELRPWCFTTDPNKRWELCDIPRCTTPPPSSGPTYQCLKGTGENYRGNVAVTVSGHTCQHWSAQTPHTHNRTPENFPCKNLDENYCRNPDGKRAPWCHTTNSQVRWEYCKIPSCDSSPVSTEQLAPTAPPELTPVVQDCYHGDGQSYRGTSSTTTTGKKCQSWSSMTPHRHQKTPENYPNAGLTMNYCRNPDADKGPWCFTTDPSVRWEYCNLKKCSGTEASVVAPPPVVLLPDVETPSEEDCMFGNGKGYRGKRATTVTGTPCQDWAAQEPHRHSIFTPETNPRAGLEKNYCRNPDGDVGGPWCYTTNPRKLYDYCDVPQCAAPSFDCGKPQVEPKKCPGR
Experimental: as §1, §2
Human plasmin Benzyloxycarbonyl valyl leucyl lyzyl
as §3

other human proteases = experiment: Inhibitory activity on other human proteases (summary)
Experimental: as §1, §2, §3

[1] = substrate succinyl leucyl leucyl valyl tyrosyl methylcoumarylamide, pH 8.0, 37° C., 15 min, read-out: Rat Chymase (IC50: nM), 50% inhibitory concentration

Structure (SMILES) | IC50 (rat chymase; [1]) [nM] | IC50 (Human cathepsin G) [µM] | IC50 (Human elastase) [µM] | IC50 (Human urokinase) [µM] | IC50 (Human plasmin) [µM] | inhibitory activity on other human proteases, in words (other human proteases) | IC50 (rat chymase) [nM]
CC(C)(C)OC(=O)Nc1cnc(-c2ccccc2)n(CC(=O)NC(Cc2ccccc2)C(=O)C(=O)CCCn2ccccc2=O)c1=O (stereo not drawn) [Compound 72, 2-(5-t-Butyloxycarbonylamino-6-oxo-2-phenyl-1,6-dihydropyrimidine-1-yl)-N-{2,3-dioxo-6-(2-oxo-1,2-dihydropyridine-1-yl)-1-phenylmethyl}hexylacetamide] | 2100 | 0.54 | 5.5 | > 10 | > 10 | no inhibitory activity on other human proteases | 
CC(=O)Nc1cnc(-c2ccccc2)n(CC(=O)NC(Cc2ccccc2)C(=O)C(=O)CCCOc2ccccn2)c1=O (stereo not drawn) [Compound 80, 2-(5-Acetylamino-6-oxo-2-phenyl-1,6-dihydropyrimidine1-yl)-N-{2,3-dioxo-1-phenylmethyl-6-(-2-pyridyloxy)}hexyl-acetamide] | 52 | 0.018 | 2.1 | > 10 | > 10 | no inhibitory activity on other human proteases | 
O=CNc1cnc(-c2ccccc2)n(CC(=O)NC(Cc2ccccc2)C(=O)C(=O)CCCOc2ccccn2)c1=O (stereo not drawn) [Compound 79, 2-(5-Formylamino-6-oxo-2-phenyl-1,6-dihydropyrimidine-1-yl)-N-{2,3-dioxo-1-phenylmethyl-6-(2-pyridyloxy)}hexylacetamide] | 19 | 0.42 | > 10 | > 10 | > 10 | no inhibitory activity on other human proteases | 
O=C(Cn1c(-c2ccccc2)ncc(NS(=O)(=O)NCc2ccccc2)c1=O)NC(Cc1ccccc1)C(=O)C(=O)CCCOc1ccccn1 (stereo not drawn) [Compound 82, 2-(5-Benzylaminosulfonylamino-6-oxo-2-phenyl-1,6-dihydropyrimidine-1-yl)-N-{2,3-dioxo-1-phenylmethyl-6-(2-pyridyloxy)}hexylacetamide] |  | 0.019 | 4 | > 10 | > 10 | no inhibitory activity on other human proteases | 19
Nc1cnc(-c2ccccc2)n(CC(=O)NC(Cc2ccccc2)C(=O)C(=O)CCCn2ccccc2=O)c1=O (stereo not drawn) [Compound 73, 2-(5-Amino-6-oxo-2-phenyl-1,6-dihydropyrimidine-1-yl)-N-{2,3-dioxo-1-phenylmethyl-6-(2-oxo-1,2-dihydropyridine-1-yl)}hexylacetamide hydrochloride] | 550 |  |  |  |  | no inhibitory activity on other human proteases | 
CC(=O)C(=O)C(Cc1cccc(F)c1)NC(=O)Cn1c(-c2ccccc2)ncc(N)c1=O (stereo not drawn) [Compound 52, 2-(5-Amino-6-oxo-2-phenyl-1,6-dihydropyrimidine-1-yl)-N-{1-(3-fluorophenyl)methyl-2,3-dioxo}butylacetamide] | 190 | 0.35 | > 10 | > 10 | > 10 |  | 
Nc1cnc(-c2ccccc2)n(CC(=O)NC(Cc2ccccc2)C(=O)C(=O)CCCc2ccccc2)c1=O (stereo not drawn) [Compound 40] | 46 | > 10 | 1.9 | > 10 | > 10 |  | 
CC(C)(C)OC(=O)Nc1cnc(-c2ccccc2)n(CC(=O)NC(Cc2ccccc2)C(=O)C(=O)CCCOc2ccccn2)c1=O (stereo not drawn) [Compound 74, 2-(5-t-Butyloxycarbonylamino-6-oxo-2-phenyl-1,6-dihydropyrimidine-1-yl)-N-{2,3-dioxo-6-(2-pyridyloxy)-1-phenylmethyl}hexylacetamide] | 510 | 0.09 | 6 | > 10 | > 10 | no inhibitory activity on other human proteases | 
CCOC(=O)CCCC(=O)C(=O)C(Cc1cccc(F)c1)NC(=O)Cn1c(-c2ccccc2)ncc(N)c1=O (stereo not drawn) [Compound 54] | 45 |  |  |  |  | no inhibitory activity on other human proteases | 
CCCCC(=O)C(=O)C(Cc1ccccc1)NC(=O)Cn1c(-c2ccccc2)ncc(N)c1=O (stereo not drawn) [Compound 44] | 79 |  |  |  |  |  | 
